The supplement of paper PMC8633005

Columns and labels:
Experiment in all cases: drug sensitivity score (DSS) (DSS (unitless, 0-50 scale)); higher = more sensitive (stronger viability inhibition); extreme values may be limits of the assay
Conditions in all cases: 72 h; culture: 2D
FM-MEL-6 = test system: FM-MEL-6
How it was run: (§1)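 Drug sensitivity scores, modified area-under-curve measures, were derived from dose-response curves fitted in the in-house Breeze software. The curves came from melanoma cell lines and patient-derived melanoma cultures (1000–1500 cells per well) grown in 2D in 384-well plates holding a 527-compound oncology library. Each compound was dissolved in DMSO or water and tested at five concentrations across a 10,000-fold range. Viability was read by CellTiter-Glo luminescence after 72 h at 37 °C.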

SK-MEL-28 = test system: SK-MEL-28
How it was run: as §1

Bowes = test system: Bowes
How it was run: as §1

FM-MEL-2 = test system: FM-MEL-2
How it was run: as §1

WM165 = test system: WM165
How it was run: as §1

WM852 = test system: WM852
How it was run: as §1

FM-MEL-3 = test system: FM-MEL-3
How it was run: as §1

SK-MEL-2 = test system: SK-MEL-2
How it was run: as §1

Row | Compound | drug sensitivity score (FM-MEL-6) | drug sensitivity score (SK-MEL-28) | drug sensitivity score (Bowes) | drug sensitivity score (FM-MEL-2) | drug sensitivity score (WM165) | drug sensitivity score (WM852) | drug sensitivity score (FM-MEL-3) | drug sensitivity score (SK-MEL-2)
1 | Cn1ncnc1[C@H]1c2n[nH]c(=O)c3cc(F)cc(c23)N[C@@H]1c1ccc(F)cc1 [Talazoparib] | 2.3 | 0.1 | 0 | 0.4 | 11.7 | 0 | 2.3 | 0
2 | C[C@@]1(C(=O)Nc2ccc(F)nc2)CCCN1c1nc(Nc2cc(C3CC3)n[nH]2)c2cccn2n1 | 6.1 | 2 | 11.7 | 5 | 13.4 | 6.9 | 17.9 | 2.9
3 | Nc1nccc(-c2c(-c3ccc(F)cc3)ncn2C2CCCCC2)n1 | 0 | 0 | 0 | 0 | 0 | 0 | 0 | 0
4 | COc1cc(C(=O)O)ccc1NC(=O)[C@@H]1N[C@@H](CC(C)(C)C)[C@](C#N)(c2ccc(Cl)cc2F)[C@H]1c1cccc(Cl)c1F [Idasanutlin] | 0.3 | 0 | 3.4 | 3.7 | 22.7 | 0 | 19.7 | 0
5 | Cc1cc2c(C(=O)NC[C@H](C)c3ccccc3)c(O)c(O)cc2c(O)c1-c1c(C)cc2c(C(=O)NC[C@H](C)c3ccccc3)c(O)c(O)cc2c1O [Sabutoclax] | 5.6 | 11.1 | 27.6 | 13 | 24.6 | 18 | 0.4 | 9.2
6 | Cn1nccc1Nc1nccc(-c2ccn([C@H](CO)c3ccc(Cl)c(F)c3)c(=O)c2)n1 [Ravoxertinib] | 5.6 | 13.1 | 1.7 | 11.9 | 12 | 1.9 | 12.4 | 5.2
7 | CCC/C=C/C=C/C(=O)O[C@H]1/C(=C/C(=O)OC)C[C@H]2C[C@H]([C@@H](C)O)OC(=O)C[C@H](O)C[C@@H]3C[C@H](OC(C)=O)C(C)(C)[C@](O)(C[C@@H]4C/C(=C/C(=O)OC)C[C@H](/C=C/C(C)(C)[C@]1(O)O2)O4)O3 [Bryostatin 1] | 5.8 | 1.9 | 1.7 | 0 | 2 | 4.3 | 0.1 | 0
8 | NC(=O)N1CCC(CC(=O)N2CCC([C@H]3c4ncc(Br)cc4CCc4cc(Cl)cc(Br)c43)CC2)CC1 [Lonafarnib] | 8.1 | 8.1 | 30.9 | 9.4 | 13 | 12.1 | 18.2 | 5.3
9 | CN1CC[C@H](c2c(O)cc(O)c3c(=O)cc(-c4ccccc4Cl)oc23)[C@H](O)C1 [Alvocidib] | 17.7 | 18.1 | 19.9 | 12.6 | 20.4 | 16.4 | 18.6 | 16.9
10 | CN1CCN(CCOc2cc(OC3CCOCC3)c3c(Nc4c(Cl)ccc5c4OCO5)ncnc3c2)CC1 [Saracatinib] | 0.9 | 4 | 0.3 | 2.3 | 2.8 | 1.8 | 0.8 | 0
11 | C[C@@H](C(=O)O)c1ccc(-c2ccccc2)c(F)c1 [Tarenflurbil] | 0 | 0 | 0 | 0 | 0 | 0 | 0 | 0
12 | CCc1cc2c(cc1N1CCC(N3CCOCC3)CC1)C(C)(C)c1[nH]c3cc(C#N)ccc3c1C2=O [Alectinib] | 0 | 0 | 0 | 0.6 | 0.2 | 0 | 0 | 0
13 | CCN(c1cc(-c2ccc(CN3CCOCC3)cc2)cc(C(=O)NCc2c(C)cc(C)[nH]c2=O)c1C)C1CCOCC1 [Tazemetostat] | 1.3 | 0 | 1.5 | 0 | 0 | 0 | 0 | 0
14 | C[C@@H](Oc1cc(-c2cnn(C3CCNCC3)c2)cnc1N)c1c(Cl)ccc(F)c1Cl [Crizotinib] | 0 | 0 | 0 | 0 | 0 | 0 | 0 | 0
15 | Cc1ncc(-c2ccnc(Nc3ccc(S(C)(=O)=O)cc3)n2)n1C(C)C [AZD-5438] | 7 | 9.9 | 10.7 | 2.2 | 10.6 | 6.2 | 4.7 | 4.2
16 | Cc1ncc(Cl)cc1NCc1ccc(C(=O)N[C@@H](CC2CCCC2)C(=O)NC2CC2)s1 | 0 | 0 | 0 | 0 | 0 | 0 | 4.6 | 0
17 | CNc1nc(-c2ccc3c(N)n[nH]c3c2)cc(N2C[C@@H](C(=O)NC3CCCCC3)CC[C@H]2C)n1 | 0 | 1.5 | 0 | 1.8 | 0.4 | 0 | 0 | 0
18 | NCCNc1ccc(NCCN)c2c1C(=O)c1ccncc1C2=O [Pixantrone] | 0.8 | 0 | 4.8 | 0 | 0.7 | 1.3 | 0 | 0
